Data as given in patent publication US9938240B2, “Fluorinated derivatives of 3-hydroxypyridin-4-ones” (Apotex Technologies Inc., priority 2009, dated 2018).

Assays:
[1] = Oral cassette dosing PK/BBB studies; type: in vivo, male Sprague-Dawley rats; details: for BBB penetration: cassette dosing BBB studies in rats, in words; for AUC brain* / Kp / AUC: oral cassette dosing, male Sprague-Dawley rats; for AUC brain* / AUC: AUC normalized to 1 mg/kg dose; for Kp / AUC: rat; for Kp: brain and plasma, read-out: AUC brain/AUC plasma; for AUC: plasma
Protocol: In-vivo pharmacokinetic (PK) and blood brain barrier (BBB) studies were conducted in male Sprague-Dawley rats using cassette dosing via oral administration. […] No. 15, pp. 652-658.

[2] = test system: human neuroblastoma MC-65 cells; test: cells; details: for EC100 / minimal effective concentration: Homo sapiens, MC65, 48 h; for EC100: read-out: EC100 (maximum effective concentration); for minimal effective concentration: read-out: TH (threshold protective concentration); for CC2 (cytotoxic concentration): MC-65, cultured without tetracycline; for CC2 (cytotoxic concentration) / CC1 (cytotoxic concentration): viability below 80%; for CC1 (cytotoxic concentration): MC-65, presence of TET
Method in brief: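 MC-65 cells (conditional Aβ fusion-protein expression, TET-repressed) were washed free of TET and FBS, then exposed to compound ~48 h in serum-free medium without or with 1 μg/mL TET.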

[3] = pKa determination by potentiometric titration; type: physicochemical; details: 0.1M aqueous NaCl/MeOH, 1/1, v/v
[4] = pKa determination by spectrophotometric titration; type: physicochemical; details: for pKa: 0.1 M NaCl solution, read-out: pKa (amine); for Logβ011 / Logβ012 / Logβ013: cumulative ligand protonation; for Logβ011 / Logβ012 / Logβ013 / pKa1(L) / pKa2(L) / pKa3(L): Example 53; for pKa1(L) / pKa2(L) / pKa3(L): ligand, spectrophotometric titration
Protocol: The pKa values of ligands can be determined by spectrophotometric titration when both the conjugated acid and base absorb in the UV-visible region. In a typical experiment, the sample solution was prepared by the following method: Apo7041 stock solution (12.74 mg) was weighed into a 10 mL volumetric flask, and 0.1 M NaCl solution was added to volume. The mixture was sonicated and voltexed to give a clear colorless solution. The concentration of Apo7041 of this stock solution is 5.1×10^−3 M.
Apo7041 sample solution: 727 μL of the above stock solution was transferred into a 50 mL volumetric flask by using a 1000 μL digital pipet, and 0.1 M NaCl was added to volume. The resulting solution was vortexed to mix to give a sample solution. The concentration of Apo7041 of this sample solution is 7.4×10^−5 M. 20 mL of the sample solution was transferred into a 35 mL beaker by using a 10 mL digital pipet. The sample solution was circulated between the beaker and the flow cell using a sipper system.
The sample solution was titrated against standard hydrochloric acid solutions at 22° C. to reach pH 1.11. After each addition of acid the solution was allowed to equilibrate until a constant pH reading was reached. The pH and the UV-Vis spectrum were recorded for each measurement. The solution was titrated until there was no obvious change in the spectra after several subsequent additions of acid. Thus, 30 measurements were recorded.
The resulting data set was then analyzed using pHAB (Peter Gans, University of Leeds). The pKa values were obtained using the model: LH+H^+⇄LH2^+, and LH2^++H^+⇄LH3^2+ (pKa3). Thus, Apo7041 has pKa2=3.51, and pKa3=1.23 as determined spectrophotometrically.
The pKa values of Apo7323 were determined by spectrophotometric titration using an Agilent 8453 UV-visible spectroscopy system (see Example 26).

[5] = spectrophotometric, 0.1 M NaCl, 22° C.

| Structure (SMILES) | BBB penetration [1] | AUC brain* [1] [ng·h/mL] | Kp [1] | AUC [1] [ng·h/mL] | EC100 [2] [µM] | minimal effective concentration [2] [µM] | CC2 (cytotoxic concentration) [2] [µM] | CC1 (cytotoxic concentration) [2] [µM] | pKa1 [3] | pKa2 [3] | pKa ([4]; amino group of the ligand) | Logβ011 [4] | Logβ012 [4] | Logβ013 [4] | pKa1(L) [4] | pKa2(L) [4] | pKa3(L) [4] | also measured |
| --- | --- | --- | --- | --- | --- | --- | --- | --- | --- | --- | --- | --- | --- | --- | --- | --- | --- | --- |
| CN(C)C(c1c(O)c(=O)ccn1C)C(F)(F)F (stereo not shown) [Apo7041, 2-[1-(dimethylamino)-2,2,2-trifluoroethyl]-3-hydroxy-1-methylpyridin-4(1H)-one] | less favorable than deferiprone in BBB penetration | 450 | 0.75 | 600 | 10 | 0.1 | 80 | 10 | 10.1 | pKa2 = 3.2 | 3.5 |  |  |  |  |  |  | pKa1 + pKa2 [3]: 13.3; pKa (amine) ([4]; amino group of the ligand): 3.51; pKa2 [4, 5]: 3.51; pKa3 [4, 5]: 1.23 |
| CNC(c1cn(C)c(C)c(O)c1=O)C(F)(F)F (stereo not shown) [Apo7056, 3-Hydroxy-1,2-dimethyl-5-[2,2,2-trifluoro-1-(methylamino)ethyl]pyridin-4(1H)-one] |  | 770 | 0.56 | 1380 | 10 | 0.1 | 80 | 80 |  |  |  | 9.8 | 14.7 | 15.1 | 9.8 | 4.9 | 0.4 |  |
| CN(C)Cc1c(O)c(=O)ccn1CC(F)(F)F [Apo7067, 2-[(dimethylamino)methyl]-3-hydroxy-1-(2,2,2-trifluoroethyl)pyridin-4(1H)-one] | readily penetrates the BBB | 740 | 1.5 | 500 | 10 | 0.1 | 80 | 80 |  |  | 6.1 | 9.6 | 15.7 | 16.5 | 9.6 | 6.1 | 0.8 |  |
| O=c1ccn(CC(F)(F)F)c(CN2CCOCC2)c1O [Apo7323, 3-hydroxy-2-(morpholinomethyl)-1-(2,2,2-trifluoroethyl)pyridin-4(1H)-one] |  |  |  |  | 20 | 1 | 80 | 80 |  |  | 4.2 | 9.2 | 13.4 | 14.2 | 9.2 | 4.2 | 0.8 |  |
| Cc1c(O)c(=O)c(C(N2CCOCC2)C(F)(F)F)cn1C (stereo not shown) [Apo7435, 3-hydroxy-1,2-dimethyl-5-(2,2,2-trifluoro-1-morpholinoethyl)pyridin-4(1H)-one] |  |  |  |  | 10 | 1 | 40 | 40 |  |  | 2.5 | 9.8 | 12.3 | 12.3 | 9.8 | 2.5 | 0.0 |  |
| Cc1c(O)c(=O)ccn1C [Deferiprone, 3-hydroxy-1,2-dimethylpyridin-4(1H)-one, reference compound] |  |  |  |  |  |  |  |  | pKa1 = 10.6 | pKa2 = 4.0 |  |  |  |  |  |  |  |  |
